Experiments:
Experiment in all cases: Inhibition of in vitro proliferation of tumor cells by PBD compounds (CTG)
Format in all cases: cell-based
[1] = tested on: MKN45 (human gastric cancer cells); conditions: MKN-45, 144 h, 6 days of culture
Method: (§1) The objective of this assay is to measure the activity of the compounds of the present disclosure in inhibiting the proliferation of different tumor cell lines: SK-BR-3 tumor cells (human breast cancer cells, ATCC, Cat. No. HTB-30), NCI-H23 (human non-small cell lung cancer cells, Nanjing Cobioer, Cat. No. CBP60132), and MKN45 (human gastric cancer cells, Nanjing Cobioer, Cat. No. CBP60488). The cells were treated in vitro with different concentrations of the compounds. After 6 days of culture, the proliferation of the cells was measured using CTG (CellTiter-Glo® Luminescent Cell Viability Assay, Promega, Cat. No. G7573) reagent, and the in vitro activity of the compounds was evaluated based on their IC50 values.
(§2) • 1. Cell culture: SK-BR-3, NCI-H23, and MKN45 cells were separately cultured in McCoy's 5A medium (ThermoFisher, Cat. No. 16600108) and RPMI 1640 medium (ThermoFisher, Cat. No. 11875119) containing 10% FBS (Gibco, 10099-141). • 2. Cell plating: After being digested with trypsin (0.25% Trypsin-EDTA (1×), Life Technologies, Cat. No. 25200-072), the SK-BR-3, NCI-H23, and MKN45 were resuspended in their respective media and counted. The density was adjusted to 1.48×10^4 cells/mL, and the cells were plated onto 96-well plates (corning, Cat. No. 3903) at 135 μL/well, i.e., 2000 cells/well, and cultured at 37° C. for 24 h. • 3. Drug formulation: PBD drugs were formulated in round-bottom 96-well plates. Plate 1: In the first column, the concentration was 0.05 mM; in the second column through the fourth column, a 3-fold serial dilution was performed in DMSO; in the fifth column through the sixth column, a 5-fold serial dilution was performed in DMSO; in the seventh column through the ninth column, a 10-fold serial dilution was performed in DMSO; and the tenth column contained DMSO. Plate 2: Corresponding media were added to the first column through the tenth column at 196 μL/well; 4 μL of solution was transferred from each well of the first column through the tenth column of plate 1 to plate 2 and well mixed with the medium; 15 μL of the mixture was added to the cells plated the day before, and the cells were cultured at 37° C. for another 6 days. • 4. CTG assay: The cell culture plates were taken out and equilibrated to room temperature. CTG was added at 75 μL/well, and the plates were incubated at room temperature in the dark for 10 min. Then luminescence values were measured on a microplate reader (BMG labtech, PHERAstar FS).

[2] = tested on: NCI-H23 (human non-small cell lung cancer cells); conditions: 144 h, 6 days of culture
Method: as §1, §2

[3] = tested on: SK-BR-3 tumor cells (human breast cancer cells); conditions: 144 h, 6 days of culture
Method: as §1, §2

Structure (SMILES): COc1ccc(C2=CN3C(=O)c4cc(OC)c(OCCOCCOc5cc6c(cc5OC)C(=O)N5CC7(CC7)C[C@H]5C=N6)cc4NC[C@@H]3C2)cc1 [2-26, (S)-7-Methoxy-8-(2-(2-(((S)-7-methoxy-2-(4-methoxyphenyl)-5-oxo-5,10,11,11a-tetrahydro-1H-benzo[e]pyrrolo[1,2-a][1,4]diazepin-8-yl)oxy)ethoxy)ethoxy)-1,11a-dihydro-3H,5H-spiro[benzo[e]pyrrolo[1,2-a][1,4]diazepine-2,1′-cyclopropan]-5-one]
- IC50 [1]: 2.42 nM
- IC50 [2]: 2.98 nM
- IC50 [3]: 2.12 nM

Structure (SMILES): COc1ccc(C2=CN3C(=O)c4cc(OC)c(OCCCCCOc5cc6c(cc5OC)C(=O)N5CC7(CC7)C[C@H]5CN6)cc4NC[C@@H]3C2)cc1 [2-27, (S)-7-Methoxy-8-((5-(((S)-7-methoxy-2-(4-methoxyphenyl)-5-oxo-5,10,11,11a-tetrahydro-1H-benzo[e]pyrrolo[1,2-a][1,4]diazepin-8-yl)oxy)pentyl)oxy)-1,10,11,11a-tetrahydro-3H,5H-spiro[benzo[e]pyrrolo[1,2-a][1,4]diazepine-2,1′-cyclopropan]-5-one]
- IC50 [1]: 7.51 nM
- IC50 [2]: 7.28 nM
- IC50 [3]: 5 nM

Structure (SMILES): COc1ccc(C2=CN3C(=O)c4cc(OC)c(OCc5cncc(COc6cc7c(cc6OC)C(=O)N6CC8(CC8)C[C@H]6C=N7)c5)cc4NC[C@@H]3C2)cc1 [2-29]
- IC50 [1]: 0.02 nM
- IC50 [2]: 0.02 nM
- IC50 [3]: 0.08 nM

Structure (SMILES): COc1cc2c(cc1OCCCCCOc1cc3c(cc1OC)C(=O)N1C=C(c4ccc(N5CCN(CCO)CC5)cc4)C[C@H]1CN3)N=C[C@@H]1CC3(CC3)CN1C2=O [2-30, (S)-8-((5-(((S)-2-(4-(4-(2-Hydroxyethyl)piperazin-1-yl)phenyl)-7-methoxy-5-oxo-5,10,11,11a-tetrahydro-1H-benzo[e]pyrrolo[1,2-a][1,4]diazepin-8-yl)oxy)pentyl)oxy)-7-methoxy-1,11a-dihydro-3H,5H-spiro[benzo[e]pyrrolo[1,2-a][1,4]diazepine-2,1′-cyclopropan]-5-one]
- IC50 [1]: 0.04 nM
- IC50 [2]: 0.02 nM
- IC50 [3]: 0.21 nM

Structure (SMILES): COc1cc2c(cc1OCCCCCOc1cc3c(cc1OC)C(=O)N1C=C(c4ccc(N5CCN(C[C@@H](O)CO)CC5)cc4)C[C@H]1CN3)N=C[C@@H]1CC3(CC3)CN1C2=O [2-31, (S)-8-((5-(((S)-2-(4-(4-((R)-2,3-Dihydroxypropyl)piperazin-1-yl)phenyl)-7-methoxy-5-oxo-5,10,11,11a-tetrahydro-1H-benzo[e]pyrrolo[1,2-a][1,4]diazepin-8-yl)oxy)pentyl)oxy)-7-methoxy-1,11a-dihydro-3H,5H-spiro[benzo[e]pyrrolo[1,2-a][1,4]diazepine-2,1′-cyclopropan]-5-one]
- IC50 [1]: 0.1 nM
- IC50 [2]: 0.08 nM
- IC50 [3]: 0.37 nM

Structure (SMILES): COc1cc2c(cc1OCCCCCOc1cc3c(cc1OC)C(=O)N1C=C(c4ccc(N5CCN(C(=O)CO)CC5)cc4)C[C@H]1CN3)N=C[C@@H]1CC3(CC3)CN1C2=O [2-32, (S)-8-((5-(((S)-2-(4-(4-(2-Hydroxyacetyl)piperazin-1-yl)phenyl)-7-methoxy-5-oxo-5,10,11,11a-tetrahydro-1H-benzo[e]pyrrolo[1,2-a][1,4]diazepin-8-yl)oxy)pentyl)oxy)-7-methoxy-1,11a-dihydro-3H,5H-spiro[benzo[e]pyrrolo[1,2-a][1,4]diazepine-2,1′-cyclopropan]-5-one]
- IC50 [1]: 0.13 nM
- IC50 [2]: 0.09 nM
- IC50 [3]: 0.78 nM

Structure (SMILES): COc1cc2c(cc1OCCCCCOc1cc3c(cc1OC)C(=O)N1C=C(c4ccc(N5CCN(C[C@H](O)CO)CC5)cc4)C[C@H]1CN3)N=C[C@@H]1CC3(CC3)CN1C2=O [2-33, (S)-8-((5-(((S)-2-(4-(4-((S)-2,3-Dihydroxypropyl)piperazin-1-yl)phenyl)-7-methoxy-5-oxo-5,10,11,11a-tetrahydro-1H-benzo[e]pyrrolo[1,2-a][1,4]diazepin-8-yl)oxy)pentyl)oxy)-7-methoxy-1,11a-dihydro-3H,5H-spiro[benzo[e]pyrrolo[1,2-a][1,4]diazepine-2,1′-cyclopropan]-5-one]
- IC50 [1]: 0.38 nM
- IC50 [2]: 0.3 nM
- IC50 [3]: 0.73 nM

Structure (SMILES): COc1cc2c(cc1OCCCCCOc1cc3c(cc1OC)C(=O)N1C=C(c4ccc(SCC5CC5)cc4)C[C@H]1CN3)N=C[C@@H]1CC3(CC3)CN1C2=O [2-34, (S)-8-((5-(((S)-2-(4-((Cyclopropylmethyl)thio)phenyl)-7-methoxy-5-oxo-5,10,11,11a-tetrahydro-1H-benzo[e]pyrrolo[1,2-a][1,4]diazepin-8-yl)oxy)pentyl)oxy)-7-methoxy-1,11a-dihydro-3H,5H-spiro[benzo[e]pyrrolo[1,2-a][1,4]diazepine-2,1′-cyclopropan]-5-one]
- IC50 [1]: 1.37 nM
- IC50 [2]: 0.62 nM
- IC50 [3]: 1.42 nM

Structure (SMILES): COc1cc2c(cc1OCCCCCOc1cc3c(cc1OC)C(=O)N1C=C(c4ccc(SC5CCC5)cc4)C[C@H]1CN3)N=C[C@@H]1CC3(CC3)CN1C2=O [2-35, (S)-8-((5-(((S)-2-(4-(Cyclobutylthio)phenyl)-7-methoxy-5-oxo-5,10,11,11a-tetrahydro-1H-benzo[e]pyrrolo[1,2-a][1,4]diazepin-8-yl)oxy)pentyl)oxy)-7-methoxy-1,11a-dihydro-3H,5H-spiro[benzo[e]pyrrolo[1,2-a][1,4]diazepine-2,1′-cyclopropan]-5-one]
- IC50 [1]: 2.73 nM
- IC50 [2]: 0.84 nM
- IC50 [3]: 1.7 nM

Structure (SMILES): COc1cc2c(cc1OCCCCCOc1cc3c(cc1OC1CC1)C(=O)N1CC4(CC4)C[C@H]1C=N3)NC[C@@H]1CC(c3ccc(C4CCOCC4)cc3)=CN1C2=O [2-39, (S)-7-Cyclopropoxy-8-((5-(((S)-7-methoxy-5-oxo-2-(4-(tetrahydro-2H-pyran-4-yl)phenyl)-5,10,11,11a-tetrahydro-1H-benzo[e]pyrrolo[1,2-a][1,4]diazepin-8-yl)oxy)pentyl)oxy)-1,11a-dihydro-3H,5H-spiro[benzo[e]pyrrolo[1,2-a][1,4]diazepine-2,1′-cyclopropan]-5-one]
- IC50 [1]: 0.84 nM
- IC50 [2]: 0.39 nM
- IC50 [3]: 0.58 nM

— patent publication US20250000989A1, “PYRROLO BENZODIAZEPINE DERIVATIVE, AND CONJUGATE, PREPARATION METHOD AND USE THEREOF” (priority 2021, published 2025)
